Results as given in publication PMC6308302, “Identification of Pharmacokinetic Markers for Guanxin Danshen Drop Pills in Rats by Combination of Pharmacokinetics, Systems Pharmacology, and Pharmacodynamic Assays” (Frontiers in Pharmacology, 2018).
Entries after “also recorded” stand apart in the source; their conditions may differ. Marks after values point to notes of the source that are not given here. Each block holds one molecule with its values, some of them ahead of it.

Assays:
[1] = Aqueous solubility test (vortexing in water); assay type: physicochemical
Protocol: Aqueous solubility (S) test of the 17 ingredients was performed by vortexing 10 mg of each ingredient in […] water in a test tube at ambient temperature and 1 atm. After vortexing for 5 min, if the solution is clear, the tested object will be considered as soluble in water. In silico assessment of the physicochemical properties governing permeation and intestinal absorption was carried out for the 17 ingredients studied. Theory aqueous solubility (S) was calculated with ALOGPS 2.1 online software via the Virtual Computational Chemistry Laboratory service (Chemoinformatics Group, Neuherberg, Germany) (VCCLAB^1). The octanol–water partition coefficient (cLogP), the total hydrogen bond count (donors and acceptors), and topological polar surface area (TPSA) were determined using the Molinspiration Property Calculator (Molinspiration Cheminformatics, Bratislava, Slovak Republic^2). Lipinski’s rule of 5 was used to predict the permeability of the compound ([Lipinski et al., 2001]).

Caco-2 cell monolayers = settings: ref Lu et al., 2008, Liu et al., 2009, Hu et al., 2014, Bowles et al., 2017, cited from earlier work; for Papp(apical→basolateral) / Papp(basolateral→apical): Caco-2 cell monolayers, from literature; for apparent permeability in Caco-2 cell monolayers: previous results
[2] = Stability tests in rat plasma (QC samples, HPLC-MS); settings: n=5
Description: Accuracy and precision were expressed by relative error (RE) and coefficient of variance (RSD), respectively.

[3] = Multiple component PK study in rat plasma after p.o. GDDP (HPLC-MS); settings: for determination in rat plasma at the planned successive PK time points / detection in rat plasma: GDDP 0.8 g/kg p.o.; for determination in rat plasma at the planned successive PK time points: 5, 10, 15, 30, 45, 60, and 120 min, LOQ 1.0–1.4 ng/mL; for detection in rat plasma: at 5, 10, 15, 30, 45, or 60 min, LOD 0.5–0.7 ng/mL; for AUC(0-inf) / AUC(0-t) / MRT inf / MRT last / Tmax / Cmax / half-life: Sprague-Dawley, rat, plasma, po
[4] = test system: isoprenaline-induced MI in mice; test: In vivo anti-MI study: isoprenaline-induced myocardial injury (ECG, H&E histology); settings: for Histopathology of heart tissue (H&E): 40 mg/kg; for ECG (lead II) findings on the fifth day of the trial: 40 mg/kg p.o., isoprenaline 5 mg/kg on days 4 and 5
[5] = 24h in auto-sampler vials, spiked 2 ng/mL
[6] = 24h in auto-sampler vials, spiked 400 ng/mL
[7] = 24h in auto-sampler vials, spiked 1600 ng/mL
[8] = Placing plasma for 6h at 4°C, spiked 2 ng/mL
[9] = Placing plasma for 6h at 4°C, spiked 400 ng/mL
[10] = Placing plasma for 6h at 4°C, spiked 1600 ng/mL
[11] = three freeze-thaw cycles, rat plasma, spiked 2 ng/mL
[12] = three freeze-thaw cycles, rat plasma, spiked 400 ng/mL
[13] = three freeze-thaw cycles, rat plasma, spiked 1600 ng/mL
[14] = 0.4 g/kg, Cmax, rat plasma, GDDP 0.4 g/kg p.o. (Low dose group), n=3
[15] = 0.4 g/kg, t1/2 β, rat plasma, GDDP 0.4 g/kg p.o. (Low dose group), n=3
[16] = 0.8 g/kg, Cmax (high / low plasma drug concentrations), rats, GDDP 0.4 and 0.8 g/kg p.o., classification
[17] = 0.8 g/kg, Cmax, rat plasma, GDDP 0.8 g/kg p.o. (High dose group), n=3
[18] = 0.8 g/kg, t1/2 β (fast / slow elimination type), rats, GDDP 0.4 and 0.8 g/kg p.o., classification
[19] = 0.8 g/kg, t1/2 β, rat plasma, GDDP 0.8 g/kg p.o. (High dose group), n=3
[20] = rat plasma, GDDP 0.4 g/kg p.o. (Low dose group), n=3
[21] = rat plasma, GDDP 0.8 g/kg p.o. (High dose group), n=3
[22] = 40 mg/kg p.o. for 7 days, isoprenaline-induced MI

Compound: CC(C)=CCC[C@](C)(O[C@@H]1O[C@H](CO[C@@H]2O[C@H](CO)[C@@H](O)[C@H](O)[C@H]2O)[C@@H](O)[C@H](O)[C@H]1O)[C@H]1CC[C@]2(C)[C@@H]1[C@H](O)C[C@@H]1[C@@]3(C)CC[C@H](O[C@@H]4O[C@H](CO)[C@@H](O)[C@H](O)[C@H]4O[C@@H]4O[C@H](CO)[C@@H](O)[C@H](O)[C@H]4O)C(C)(C)[C@@H]3CC[C@]12C [Rb1, ginsenoside Rb1]
solubility at 5 min ([1]; thermodynamic from solid, determined, water, 25 °C, 1 atm): > 10000 µg/mL | Papp(apical→basolateral) (Caco-2 cell monolayers): > 0.1^c ×10^-6 cm/s | Papp(basolateral→apical) (Caco-2 cell monolayers): > 0.1^c ×10^-6 cm/s | apparent permeability in Caco-2 cell monolayers (Caco-2 cell monolayers): > 10^-7 cm/s | Stability: Measured [2, 5]: 1.97 ± 0.29 ng/mL | Stability: RE [2, 5]: -1.62% | Stability: Measured [2, 6]: 386.10 ± 20.53 ng/mL | Stability: RE [2, 6]: -3.47% | Stability: Measured [2, 7]: 1540.64 ± 55.53 ng/mL | Stability: RE [2, 7]: -3.71% | Stability: Measured [2, 8]: 1.66 ± 0.17 ng/mL | Stability: RE [2, 8]: -16.86% | Stability: Measured [2, 9]: 376.87 ± 18.97 ng/mL | Stability: RE [2, 9]: -5.78% | Stability: Measured [2, 10]: 1647.48 ± 31.81 ng/mL | Stability: RE [2, 10]: 2.97% | Stability: Measured [2, 11]: 1.75 ± 0.23 ng/mL | Stability: RE [2, 11]: -12.42% | Stability: Measured [2, 12]: 394.28 ± 21.32 ng/mL | Stability: RE [2, 12]: -1.43% | Stability: Measured [2, 13]: 1601.88 ± 26.56 ng/mL | Stability: RE [2, 13]: 0.12% | determination in rat plasma at the planned successive PK time points [3]: could be determined | detection in rat plasma [3]: could be detected | AUC(0-inf) ([3]; 0.4 g/kg): 1930 ± 1300 ng·h/mL | AUC(0-t) ([3]; 0.4 g/kg): 818 ± 272 ng·h/mL | MRT inf ([3]; 0.4 g/kg): 36.6 ± 17.7 h | MRT last ([3]; 0.4 g/kg): 11.42 ± 0.11 h | Tmax ([3]; 0.4 g/kg): 3.25 ± 3.89 h | Cmax [3, 14]: 57 ± 27.3 ng/mL | half-life [3, 15]: 22.9 ± 12.4 h | AUC(0-inf) ([3]; 0.8 g/kg): 1350 ± 486 ng·h/mL | AUC(0-t) ([3]; 0.8 g/kg): 998 ± 200 ng·h/mL | MRT inf ([3]; 0.8 g/kg): 17.1 ± 4.98 h | MRT last ([3]; 0.8 g/kg): 9.63 ± 0.6 h | Tmax ([3]; 0.8 g/kg): 3.34 ± 3.05 h | Cmax [3, 16]: > 20 ng/mL | Cmax [3, 17]: 80.3 ± 19.2 ng/mL | half-life [3, 18]: > 2.6 h | half-life [3, 19]: 10.8 ± 4.03 h | Cltot [3, 20]: 18 ± 12 mL/min/kg | Cltot [3, 21]: 43.2 ± 13.5 mL/min/kg | systematic exposure (AUC0-∞), times higher than those of CTS and DHTS ([3]; rats, p.o. GDDP, P < 0.05): 84–1137 times | systematic exposure (AUC0-∞), times higher than those of Rd, R1, Rg1, TS IIA, and TS I ([3]; rats, p.o. GDDP, P < 0.05): 3.5–30 times | anti-MI effect (overall conclusion) [4, 22]: favorable anti-MI effect | Histopathology of heart tissue (H&E) [4, 22]: less severe histological damage with mild cell distortion, edema, and good continuity with adjacent myofibrils | ECG (lead II) findings on the fifth day of the trial [4]: T waves reversed or decreased

solubility in water (in words) ([1]; water at 25 °C): insoluble | Stability: Measured [2, 5]: 2.02 ± 0.32 ng/mL | Stability: RE [2, 5]: 0.78% | Stability: Measured [2, 6]: 470.56 ± 54.19 ng/mL | Stability: RE [2, 6]: 17.64% | Stability: Measured [2, 7]: 1562.58 ± 145.90 ng/mL | Stability: RE [2, 7]: -2.34% | Stability: Measured [2, 8]: 2.22 ± 0.30 ng/mL | Stability: RE [2, 8]: 10.90% | Stability: Measured [2, 9]: 469.39 ± 24.45 ng/mL | Stability: RE [2, 9]: 17.35% | Stability: Measured [2, 10]: 1771.82 ± 333.46 ng/mL | Stability: RE [2, 10]: 10.74% | Stability: Measured [2, 11]: 2.09 ± 0.20 ng/mL | Stability: RE [2, 11]: 4.39% | Stability: Measured [2, 12]: 459.00 ± 25.68 ng/mL | Stability: RE [2, 12]: 14.75% | Stability: Measured [2, 13]: 1482.38 ± 283.06 ng/mL | Stability: RE [2, 13]: -7.32% | determination in rat plasma at the planned successive PK time points [3]: could be determined | detection in rat plasma [3]: could be detected | AUC(0-inf) ([3]; 0.4 g/kg): 125 ± 115 ng·h/mL | AUC(0-t) ([3]; 0.4 g/kg): 63 ± 49.5 ng·h/mL | MRT inf ([3]; 0.4 g/kg): 27.3 ± 10.6 h | MRT last ([3]; 0.4 g/kg): 9.93 ± 0.87 h | Tmax ([3]; 0.4 g/kg): 1.25 ± 1.06 h | Cmax [3, 14]: 6.1 ± 3.08 ng/mL | half-life [3, 15]: 16.4 ± 8.87 h | AUC(0-inf) ([3]; 0.8 g/kg): 45.1 ± 20.6 ng·h/mL | AUC(0-t) ([3]; 0.8 g/kg): 40.1 ± 17.3 ng·h/mL | MRT inf ([3]; 0.8 g/kg): 7.72 ± 2.17 h | MRT last ([3]; 0.8 g/kg): 4.27 ± 1.62 h | Tmax ([3]; 0.8 g/kg): 1.25 ± 0.66 h | Cmax [3, 16]: < 10 ng/mL | Cmax [3, 17]: 8.59 ± 3.18 ng/mL | half-life [3, 18]: > 2.6 h | half-life [3, 19]: 11.7 ± 4.78 h | Cltot [3, 20]: 45.3 ± 41.8 mL/min/kg | Cltot [3, 21]: 163 ± 59.8 mL/min/kg
Compound: Cc1coc2c1C(=O)C(=O)c1c-2ccc2c(C)cccc12 [TS I, tanshinone I]
Papp(apical→basolateral) (Caco-2 cell monolayers): 0.95^d ×10^-6 cm/s | Papp(basolateral→apical) (Caco-2 cell monolayers): 11.27^d ×10^-6 cm/s | apparent permeability in Caco-2 cell monolayers (Caco-2 cell monolayers): ≥ 10^-6 cm/s | Histopathology of heart tissue (H&E) [4, 22]: myocardial lysis, architecture disorder, and loss of striations in heart tissue; also recorded: myocardial lysis, and architecture disorder, and loss of striations in heart tissue | ECG (lead II) findings on the fifth day of the trial [4]: T waves reversed or decreased
